The source of these data is US20220168315A1, “COMPOUNDS AND THERAPEUTIC USES THEREOF” (priority 2019, published 2022).

T1 sequence (Q9Y2I7 whole entry, the tested form may be a part): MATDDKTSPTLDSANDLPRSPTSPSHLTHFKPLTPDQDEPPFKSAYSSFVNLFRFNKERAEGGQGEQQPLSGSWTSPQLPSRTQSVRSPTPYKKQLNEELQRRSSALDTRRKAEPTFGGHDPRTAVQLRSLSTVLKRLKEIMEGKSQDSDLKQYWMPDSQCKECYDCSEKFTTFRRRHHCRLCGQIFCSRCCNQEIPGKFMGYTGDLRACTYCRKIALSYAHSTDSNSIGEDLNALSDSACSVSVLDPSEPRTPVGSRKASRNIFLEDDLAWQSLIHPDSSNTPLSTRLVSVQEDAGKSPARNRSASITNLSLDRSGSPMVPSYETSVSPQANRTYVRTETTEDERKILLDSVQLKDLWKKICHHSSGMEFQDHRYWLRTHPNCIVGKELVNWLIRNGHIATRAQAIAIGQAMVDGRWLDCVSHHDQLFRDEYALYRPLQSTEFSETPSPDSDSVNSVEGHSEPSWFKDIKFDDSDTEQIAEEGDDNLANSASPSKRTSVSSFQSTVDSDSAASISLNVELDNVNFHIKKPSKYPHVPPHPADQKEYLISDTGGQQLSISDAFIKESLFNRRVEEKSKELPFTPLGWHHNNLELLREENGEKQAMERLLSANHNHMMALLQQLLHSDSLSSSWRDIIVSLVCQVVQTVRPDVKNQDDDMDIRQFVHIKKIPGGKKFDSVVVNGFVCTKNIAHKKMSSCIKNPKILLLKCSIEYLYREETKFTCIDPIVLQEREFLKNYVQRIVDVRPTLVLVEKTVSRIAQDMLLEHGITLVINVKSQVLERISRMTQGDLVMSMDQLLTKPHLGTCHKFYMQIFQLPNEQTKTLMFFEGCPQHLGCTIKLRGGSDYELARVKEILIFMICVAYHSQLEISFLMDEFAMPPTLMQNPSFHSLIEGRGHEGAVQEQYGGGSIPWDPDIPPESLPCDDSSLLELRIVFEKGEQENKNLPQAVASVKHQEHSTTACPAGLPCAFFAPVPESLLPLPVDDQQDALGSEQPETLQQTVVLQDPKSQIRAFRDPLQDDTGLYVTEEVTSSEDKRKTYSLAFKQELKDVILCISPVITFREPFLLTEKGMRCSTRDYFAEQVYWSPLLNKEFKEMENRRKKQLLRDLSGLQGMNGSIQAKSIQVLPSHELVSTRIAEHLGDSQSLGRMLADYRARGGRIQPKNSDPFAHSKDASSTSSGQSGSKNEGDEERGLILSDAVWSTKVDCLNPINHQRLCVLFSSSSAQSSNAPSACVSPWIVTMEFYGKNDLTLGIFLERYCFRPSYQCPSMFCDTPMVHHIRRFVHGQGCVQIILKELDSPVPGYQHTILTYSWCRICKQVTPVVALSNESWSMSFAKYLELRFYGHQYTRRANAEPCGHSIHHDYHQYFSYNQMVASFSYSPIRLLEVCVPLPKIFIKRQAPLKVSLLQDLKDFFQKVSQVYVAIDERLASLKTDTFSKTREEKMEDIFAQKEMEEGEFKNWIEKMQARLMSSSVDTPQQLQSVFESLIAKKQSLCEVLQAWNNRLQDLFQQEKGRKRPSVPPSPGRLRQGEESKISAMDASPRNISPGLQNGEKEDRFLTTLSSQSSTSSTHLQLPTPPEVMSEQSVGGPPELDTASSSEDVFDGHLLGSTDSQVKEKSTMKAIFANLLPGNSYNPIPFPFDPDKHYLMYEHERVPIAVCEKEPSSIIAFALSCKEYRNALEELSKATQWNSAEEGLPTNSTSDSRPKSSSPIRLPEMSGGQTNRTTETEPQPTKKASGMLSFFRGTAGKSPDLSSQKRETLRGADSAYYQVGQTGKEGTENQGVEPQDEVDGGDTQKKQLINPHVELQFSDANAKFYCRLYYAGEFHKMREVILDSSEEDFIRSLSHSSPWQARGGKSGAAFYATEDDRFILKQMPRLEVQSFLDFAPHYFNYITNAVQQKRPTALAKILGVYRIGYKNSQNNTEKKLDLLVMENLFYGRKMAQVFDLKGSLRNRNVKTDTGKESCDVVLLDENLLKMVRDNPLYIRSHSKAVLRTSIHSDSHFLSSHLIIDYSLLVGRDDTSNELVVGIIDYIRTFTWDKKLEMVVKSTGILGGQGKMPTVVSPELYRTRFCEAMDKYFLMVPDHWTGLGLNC

This assay concerns the target T1, PIKfyve (Homo sapiens, UniProt Q9Y2I7).
T1 construct: T7 phage fusion (kinase-tagged phage) or DNA tag for qPCR; made in house; host or cells: E. coli BL21-derived host (T7 phage) for most kinases, HEK-293 for the rest
Kind of assay: Kinase binding assay (kinase-tagged T7 phage, affinity beads, qPCR readout), Kd determination. Particulars: 11-point 3-fold dilution series. As for the experimental part: Kinase assays. For most assays, kinase-tagged T7 phage strains were prepared in an E. coli host derived from the BL21 strain. E. coli were grown to log-phase and infected with T7 phage and incubated with shaking at 32° C. until lysis. The lysates were centrifuged and filtered to remove cell debris. The remaining kinases were produced in HEK-293 cells and subsequently tagged with DNA for qPCR detection. Streptavidin-coated magnetic beads were treated with biotinylated small molecule ligands for 30 minutes at room temperature to generate affinity resins for kinase assays. The liganded beads were blocked with excess biotin and washed with blocking buffer (SeaBlock (Pierce), 1% BSA, 0.05% Tween 20, 1 mM DTT) to remove unbound ligand and to reduce non-specific binding. Binding reactions were assembled by combining kinases, liganded affinity beads, and test compounds in 1× binding buffer (20% SeaBlock, 0.17×PBS, 0.05% Tween 20, 6 mM DTT). Test compounds were prepared as 111× stocks in 100% DMSO. Kds were determined using an 11-point 3-fold compound dilution series with three DMSO control points. All compounds for Kd measurements are distributed by acoustic transfer (non-contact dispensing) in 100% DMSO. The compounds were then diluted directly into the assays such that the final concentration of DMSO was 0.9%. All reactions performed in polypropylene 384-well plate. Each was a final volume of 0.02 ml. The assay plates were incubated at room temperature with shaking for 1 hour and the affinity beads were washed with wash buffer (1×PBS, 0.05% Tween 20). The beads were then re-suspended in elution buffer (1×PBS, 0.05% Tween 20, 0.5 μM non-biotinylated affinity ligand) and incubated at room temperature with shaking for 30 minutes. The kinase concentration in the eluates was measured by qPCR.
An 11-point 3-fold serial dilution of each test compound was prepared in 100% DMSO at 100× final test concentration and subsequently diluted to 1× in the assay (final DMSO concentration=1%). Most Kds were determined using a compound top concentration=30,000 nM. If the initial Kd determined was <0.5 nM (the lowest concentration tested), the measurement was repeated with a serial dilution starting at a lower top concentration.
On to `CCNC(=O)N1Cc2nc(N/N=C/c3cccc(C)c3)nc(N3CCOCC3)c2C1` [Example 1, N-ethyl-4-morpholino-2-[(2E)-2-(m-tolylmethylene)hydrazino]-5,7-dihydropyrrolo[3,4-d]pyrimidine-6-carboxamide], for which the dissociation constant Kd – broadly, the equilibrium constant for the complex coming apart – was 5 to 10 nM. Then `Cc1cccc(/C=N/Nc2nc3c(c(N4CCOCC4)n2)CN(C(=O)Nc2ccc(F)cc2)C3)c1` [Example 2, N-(4-Fluorophenyl)-4-morpholino-2-[(2E)-2-(m-tolylmethylene)hydrazino]-5,7-dihydropyrrolo[3,4-d]pyrimidine-6-carboxamide], with 5 to 10 nM. `Cc1cccc(/C=N/Nc2nc3c(c(N4CCOCC4)n2)CN(C(=O)Nc2cccnc2)C3)c1` [Example 3, 4-Morpholino-2-[(2E)-2-(m-tolylmethylene)hydrazino]-N-(3-pyridyl)-5,7-dihydropyrrolo[3,4-d]pyrimidine-6-carboxamide] registered a Kd of 1 to 5 nM. In turn, `Cc1cccc(/C=N/Nc2nc3c(c(N4CCOCC4)n2)CN(C(=O)NC2CCCC2)C3)c1` [Example 4, N-cyclopentyl-4-morpholino-2-[(2E)-2-(m-tolylmethylene)hydrazino]-5,7-dihydropyrrolo[3,4-d]pyrimidine-6-carboxamide] had a Kd of 1 to 5 nM. Consider `Cc1cccc(/C=N/Nc2nc3c(c(N4CCOCC4)n2)CN(C(=O)NC2CCC2)C3)c1` [Example 5, N-cyclobutyl-4-morpholino-2-[(2E)-2-(m-tolylmethylene)hydrazino]-5,7-dihydropyrrolo[3,4-d]pyrimidine-6-carboxamide], for which the dissociation constant Kd fell in the range of 1 to 5 nM. Turning to `O=C(Nc1cccnc1)N1Cc2nc(N/N=C/c3cccc(O)c3)nc(N3CCOCC3)c2C1` [Example 6, 2-[(2E)-2-[(3-hydroxyphenyl)methylene]hydrazino]-4-morpholino-N-(3-pyridyl)-5,7-dihydropyrrolo[3,4-d]pyrimidine-6-carboxamide], the Kd lay in the range of 60 to 100 nM. `O=C(Nc1cccnc1)N1Cc2nc(N/N=C/c3cccc(Cl)c3)nc(N3CCOCC3)c2C1` [Example 7, 2-[(2E)-2-[(3-chlorophenyl)methylene]hydrazino]-4-morpholino-N-(3-pyridyl)-5,7-dihydropyrrolo[3,4-d]pyrimidine-6-carboxamide] displayed a Kd of 10 to 60 nM. The compound `O=C(Nc1cccnc1)N1Cc2nc(N/N=C/c3cccc(C(F)(F)F)c3)nc(N3CCOCC3)c2C1` [Example 8, 4-morpholino-N-(3-pyridyl)-2-[(2E)-2-[[3-(trifluoromethyl)phenyl]methylene]hydrazino]-5,7-dihydropyrrolo[3,4-d]pyrimidine-6-carboxamide] returned a Kd of 100 to 2000 nM. Then `Cc1cccc(/C=N/Nc2nc3c(c(N4CCOCC4)n2)CN(Cc2cccnc2)C3)c1` [Example 10, 4-morpholino-N-[(E)-m-tolylmethyleneamino]-6-(3-pyridylmethyl)-5,7-dihydropyrrolo[3,4-d]pyrimidin-2-amine], with 1 to 5 nM. `Cc1cccc(/C=N/Nc2nc3c(c(N4CCOCC4)n2)CN(Cc2ccccn2)C3)c1` [Example 11, 4-morpholino-N-[(E)-m-tolylmethyleneamino]-6-(2-pyridylmethyl)-5,7-dihydropyrrolo[3,4-d]pyrimidin-2-amine] returned a dissociation constant (Kd) of 10 to 60 nM. To `Cc1cccc(/C=N/Nc2nc3c(c(N4CCOCC4)n2)CN(S(=O)(=O)c2cn(C)cn2)C3)c1` [Example 15, 6-(1-methylimidazol-4-yl)sulfonyl-4-morpholino-N-[(E)-m-tolylmethyleneamino]-5,7-dihydropyrrolo[3,4-d]pyrimidin-2-amine] belongs no more than 1 nM.

For the compound `Cc1cccc(/C=N/Nc2nc3c(c(N4CCOCC4)n2)CN(S(=O)(=O)c2cccc(C(=O)O)c2)C3)c1` [Example 16, 3-[[4-morpholino-2-[(2E)-2-(m-tolylmethylene)hydrazino]-5,7-dihydropyrrolo[3,4-d]pyrimidin-6-yl]sulfonyl]benzoic acid], the Kd is 1 to 5 nM.

For `Cc1cccc(/C=N/Nc2nc3c(c(N4CCOCC4)n2)CN(S(=O)(=O)c2ccc(C(=O)O)cc2)C3)c1` [Example 17, 4-[[4-morpholino-2-[(2E)-2-(m-tolylmethylene)hydrazino]-5,7-dihydropyrrolo[3,4-d]pyrimidin-6-yl]sulfonyl]benzoic acid], the Kd is 1 to 5 nM. In turn, `Cc1cccc(/C=N/Nc2nc3c(c(N4CCOCC4)n2)CN(S(=O)(=O)c2cccnc2)C3)c1` [Example 19, 4-morpholino-N-[(E)-m-tolylmethyleneamino]-6-(3-pyridylsulfonyl)-5,7-dihydropyrrolo[3,4-d]pyrimidin-2-amine] returned a dissociation constant (Kd) of 1 to 5 nM. In turn, `Cc1cccc(/C=N/Nc2nc3c(c(N4CCOCC4)n2)CN(S(=O)(=O)c2c(C)n[nH]c2C)C3)c1` [Example 20, 6-[(3,5-dimethyl-1H-pyrazol-4-yl)sulfonyl]-4-morpholino-N-[(E)-m-tolylmethyleneamino]-5,7-dihydropyrrolo[3,4-d]pyrimidin-2-amine] came in with a Kd of no more than 1 nM.

For the compound `Cc1cccc(/C=N/Nc2nc3c(c(N4CCOCC4)n2)CN(S(=O)(=O)N(C)C)C3)c1` [Example 21, N,N-dimethyl-4-morpholino-2-[(2E)-2-(m-tolylmethylene)hydrazino]-5,7-dihydropyrrolo[3,4-d]pyrimidine-6-sulfonamide], the dissociation constant (Kd) lay within 1 to 5 nM. `Cc1cccc(/C=N/Nc2nc3c(c(N4CCOCC4)n2)CN(S(=O)(=O)c2c(C)noc2C)C3)c1` [Example 22, 6-(3,5-dimethylisoxazol-4-yl)sulfonyl-4-morpholino-N-[(E)-m-tolylmethyleneamino]-5,7-dihydropyrrolo[3,4-d]pyrimidin-2-amine] came in with a Kd of 1 to 5 nM.

In turn, `Cc1cccc(/C=N/Nc2nc3c(c(N4CCOCC4)n2)CN(c2ncccn2)C3)c1` [Example 23, 4-morpholino-N-[(E)-m-tolylmethyleneamino]-6-pyrimidin-2-yl-5,7-dihydropyrrolo[3,4-d]pyrimidin-2-amine] showed a Kd of 1 to 5 nM. The compound `Cc1cccc(/C=N/Nc2nc3c(c(N4CCOCC4)n2)CN(c2ccncn2)C3)c1` [Example 24, 4-morpholino-N-[(E)-m-tolylmethyleneamino]-6-pyrimidin-4-yl-5,7-dihydropyrrolo[3,4-d]pyrimidin-2-amine] showed a dissociation constant Kd of 1 to 5 nM.

`Cc1cccc(/C=N/Nc2nc3c(c(N4CCOC[C@@H]4C)n2)CN(c2ncccn2)C3)c1` [Example 25, 4-[(3S)-3-methylmorpholin-4-yl]-N-[(E)-m-tolylmethyleneamino]-6-pyrimidin-2-yl-5,7-dihydropyrrolo[3,4-d]pyrimidin-2-amine]: the Kd lay within 1 to 5 nM.

Compound `Cc1cccc(/C=N/Nc2nc3c(c(N4CCOC[C@H]4C)n2)CN(c2ncccn2)C3)c1` [Example 26, 4-[(3R)-3-methylmorpholin-4-yl]-N-[(E)-m-tolylmethyleneamino]-6-pyrimidin-2-yl-5,7-dihydropyrrolo[3,4-d]pyrimidin-2-amine] showed an equilibrium dissociation constant (Kd) of 5 to 10 nM. In the case of `Cc1cccc(/C=N/Nc2nc3c(c(N4CCOCC4)n2)CN(C(=O)NC2COC2)C3)c1` [Example 27, 4-morpholino-2-[(2E)-2-(m-tolylmethylene)hydrazino]-N-(oxetan-3-yl)-5,7-dihydropyrrolo[3,4-d]pyrimidine-6-carboxamide], the Kd is 1 to 5 nM. In the case of `Cc1cccc(/C=N/Nc2nc3c(c(N4CCOCC4)n2)CN(C(=O)NC2CNC2)C3)c1` [Example 28, N-(azetidin-3-yl)-4-morpholino-2-[(2E)-2-(m-tolylmethylene)hydrazino]-5,7-dihydropyrrolo[3,4-d]pyrimidine-6-carboxamide], the Kd was 5 to 10 nM. The compound `Cc1cccc(/C=N/Nc2nc3c(c(N4CCOCC4)n2)CCN(S(=O)(=O)c2c(C)n[nH]c2C)C3)c1` [Example 29, 7-[(3,5-dimethyl-1H-pyrazol-4-yl)sulfonyl]-4-morpholino-N-[(E)-m-tolylmethyleneamino]-6,8-dihydro-5H-pyrido[3,4-d]pyrimidin-2-amine] came in with a Kd of 5 to 10 nM. In turn, `Cc1cccc(-c2cc(O)n(-c3nc(N4CCOCC4)c4sc(-c5ccncc5)cc4n3)n2)c1` [Example 33, 2-[4-morpholino-6-(4-pyridyl)thieno[3,2-d]pyrimidin-2-yl]-5-(m-tolyl)pyrazol-3-ol methane sulfonate] had a dissociation constant (Kd) of no more than 1 nM.

For `COc1cccc(-c2cc(O)n(-c3nc(N4CCOCC4)c4sc(-c5ccncc5)cc4n3)n2)c1` [Example 34, 5-(3-methoxyphenyl)-2-[4-morpholino-6-(4-pyridyl)thieno[3,2-d]pyrimidin-2-yl]pyrazol-3-ol], the Kd is 5 to 10 nM.

In turn, `Cc1cccc(-c2cc(O)n(-c3nc4c(c(N5CCOCC5)n3)CN(S(=O)(=O)c3c(C)noc3C)C4)n2)c1` [Example 37, 2-[6-(3,5-dimethylisoxazol-4-yl)sulfonyl-4-morpholino-5,7-dihydropyrrolo[3,4-d]pyrimidin-2-yl]-5-(m-tolyl)pyrazol-3-ol] had an equilibrium dissociation constant (Kd) of 100 to 2000 nM.
